Here are results for 33 compounds from US5716993A, “Anthranilic acid derivatives” (Eisai Co., Ltd., priority 1993, dated 1998).

In this test the target is T1, cGMP-PDE prepared from porcine aorta (Sus scrofa, UniProt A0A287B475).
T1 construct: The enzyme activity of CGMP-PDE prepared from porcine aorta was determined; from tissue; host or cells: porcine aorta, 100,000×g supernatant, DEAE-Toyopearl 650S fractions
Kind of test: Enzyme inhibitory activity using cGMP-PDE prepared from porcine aorta. The class given is biochemical. The settings on record: CaM-independent cGMP-PDE fractions from porcine aorta; 1 μM cGMP substrate, 1 mM EGTA, DMSO 4% or below. The procedure: Enzyme Inhibitory activity using cGMP-PDE prepared from porcine aorta
The enzyme activity of CGMP-PDE prepared from porcine aorta was determined according to the method of Thompson et al. This determination was conducted in the presence of 1 mM EGTA by the use of 1 μM cGMP as the substrate. Each compound according to the present invention was dissolved in DMSO and added to the reaction system to determine the inhibitory activity thereof. The final concentration of DMSO in the reaction system was adjusted to 4% or below.
The cGMP-PDE was prepared as follows:
Porcine aorta was cut into fine pieces, followed by the addition of 10 times by volume as much buffer A (20 mM Tris/HCl, 2 mM Mg acetate, 1 mM dithiothreitol, 5 mM EDTA, 1400TIU/1 aprotinin, 10 mg/1 leupeptin, 1 mM benzamidine, 0.2 mM PMSF, pH7.5). The obtained mixture was homogenized and centrifuged at 100,000×g for one hour. The obtained supernatant was placed on a column of DEAE-Toyopearl 650S (a product of Tosoh, Tokyo, Japan), followed by the washing of the column with buffer B (50 mM Tris/HCl, 0.1 mM EGTA, 2 mM Mg acetate, 1 mM Dithiothreitol, 0.2 mM PMSF, pH7.5). The resulting column was subjected to gradient elution with 0.05 to 0.4M sodium chloride to obtain CaM-independent cGMP-PDE fractions.

The compound `COc1cc(NC(=O)[C@H]2CC[C@H](C(=O)O)CC2)c(C(=O)NCc2ccc3c(c2)OCO3)cc1Br` [Example 129, 5-Bromo-2-[(trans-4-carboxycyclohexanecarbonyl)amino]-4-methoxy-N-(3,4-methylenedioxybenzyl)benzamide] had an IC50 of 36.8 nM. On to `COc1ccc(CNC(=O)c2cc(Cl)ccc2NC(=O)[C@H]2CC[C@H](C(=O)O)CC2)cc1Cl` [Example 112, 2-[(trans-4-Carboxycyclohexanecarbonyl)amino]-5-chloro-N-(3-chloro-4-methoxybenzyl)benzamide], for which half-maximal inhibition (IC50) required 5.3 nM. With `COc1ccc(CNC(=O)c2cc(C#N)ccc2NC(=O)[C@@H]2CCC(=O)O2)cc1Cl` [Example 136, N-(3-Chloro-4-methoxybenzyl)-5-cyano-2-[((S)-5-oxo-2-tetrahydrofurancarbonyl)amino]benzamide], the IC50 is 18.1 nM.

Regarding `O=C(NCc1ccc2c(c1)OCO2)c1cc(Br)ccc1NC(=O)[C@H]1CC[C@H](C(=O)O)CC1` [Example 45, 5-Bromo-2-(trans-4-carboxycyclohexanecarbonyl)amino-N-(3,4-methylenedioxybenzyl)benzamide], the IC50 turned out to be 0.7 nM. For `COc1ccc(CNC(=O)c2cc(Br)ccc2NC(=O)[C@H]2CC[C@H](C(=O)O)CC2)cc1Cl` [Example 113, 5-Bromo-2-[(trans-4-carboxycyclohexanecarbonyl)amino]-N-(3-chloro-4-methoxybenzyl)benzamide] the value was 0.4 nM. With `O=C(NCc1ccc2c(c1)OCO2)c1cc(Cl)ccc1NC[C@H]1CC[C@H](C(=O)O)CC1` [Example 47], the IC50 was 5.3 nM. Regarding `O=C(NCc1ccc2c(c1)OCO2)c1cc(Cl)ccc1NCc1ccncc1` [Example 33, 5-Chloro-N-(3,4-methylenedioxybenzyl)-2-(4-picolyl)aminobenzamide], the IC50 is 20.5 nM.

In turn, `COc1ccc(CNC(=O)c2cc(Br)c(OC)cc2NC(=O)[C@H]2CC[C@H](C(=O)O)CC2)cc1Cl` [Example 115, 5-Bromo-2-[(trans-4-carboxycyclohexanecarbonyl)amino]-N-(8-chloro-4-methoxybenzyl)-4-methoxybenzamide] returned an IC50 of 24.8 nM. Regarding `COc1ccc(CNC(=O)c2cc(Cl)ccc2NC(=O)N2CCC(C(=O)O)CC2)cc1Cl` [Example 43], the IC50 stood at 0.9 nM. For `O=C(NCc1ccc2c(c1)OCO2)c1cc(-n2cccn2)ccc1NC(=O)[C@H]1CC[C@H](C(=O)O)CC1` [Example 126, 2-[(trans-4-Carboxycyclohexanecarbonyl)amino]-N-(3,4-methylenedioxybenzyl)-5-(1-pyrazolyl)benzamide] the value was 2.9 nM; for `O=C(NCc1ccc2c(c1)OCO2)c1cc(Cl)ccc1NC(=O)[C@H]1CC[C@H](C(=O)O)CC1` [Example 39, 2-(trans-4-Carboxycyclohexanecarbonyl)amino-5-chloro-N-(3,4-methylenedioxybenzyl)benzamide], 3.2 nM. The compound `COc1ccc(CNC(=O)c2cc(C#N)ccc2NC(=O)[C@H]2CC[C@H](C(=O)O)CC2)cc1Cl` [Example 110, 2-[(trans-4-Carboxycyclohexanecarbonyl)amino]-N-(3-chloro-4-methoxybenzyl)-5-cyanobenzamide] displayed an IC50 of 0.7 nM. In turn, `O=C(NCc1ccc2c(c1)OCO2)c1cc(Cl)ccc1NC(=O)C1CCCCC1` [Example 19, 5-Chloro-2-[(cyclohexanecarbonyl)amino]-N-(3,4-methylenedioxybenzyl)benzamide] had an IC50 of 16.6 nM. As to `O=C(NCc1ccc2c(c1)OCO2)c1cc(OC(F)(F)F)ccc1NC(=O)[C@H]1CC[C@H](C(=O)O)CC1` [Example 125, 2-[(trans-4-Carboxycyclohexanecarbonyl)amino]-N-(3,4-methylenedioxybenzyl)-5-trifluoromethoxybenzamide], the IC50 stood at 19.2 nM. For `O=C(O)c1ccc(C(=O)Nc2ccc(Cl)cc2C(=O)NCc2ccc3c(c2)OCO3)cc1` [Example 41, 2-(4-Carboxybenzoyl)amino-5-chloro-N-(3,4-methylenedioxybenzyl)benzamide] the value was 1.4 nM; for `COc1ccc(CNC(=O)c2cc(Br)c(N)cc2NC(=O)[C@H]2CC[C@H](C(=O)O)CC2)cc1Cl` [Example 141, 4-Amino-5-bromo-2-[(trans-4-carboxycyclohexanecarbonyl)amino]-N-(3-chloro-4-methoxybenzyl)benzamide], 7.2 nM; for `COc1ccc(CNC(=O)c2cc(C#N)c(OC)cc2NC(=O)[C@H]2CC[C@H](C(=O)O)CC2)cc1Cl` [Example 116], 2.9 nM. The compound `COc1ccc(CNC(=O)c2cc(S(=O)(=O)N(C)C)ccc2NC(=O)[C@H]2CC[C@H](C(=O)O)CC2)cc1Cl` [Example 117, 2-[(trans-4-Carboxycyclohexanecarbonyl)amino]-N-(3-chloro-4-methoxybenzyl)-5-dimethylsulfamoylbenzamide] had an IC50 of 11.5 nM. For `O=C1c2c(NC(=O)[C@H]3CC[C@H](C(=O)O)CC3)ccc(Br)c2CN1Cc1ccc2c(c1)OCO2` [Example 123, 4-Bromo-7-[(trans-4-carboxycyclohexanecarbonyl)amino]-N-(3,4-methylenedioxybenzyl)isoindoline-1-one] the value was 6.1 nM; for `COc1ccc(CNC(=O)c2cc(C#N)ccc2NC(=O)c2ccncc2)cc1Cl` [Example 80, N-(3-Chloro-4-methoxybenzyl)-5-cyano-2-(isonicotinoylamino)benzamide], 11.9 nM.

With `O=C(O)/C=C/C(=O)Nc1ccc(Cl)cc1C(=O)NCc1ccc2c(c1)OCO2` [Example 44, 2-(3-Carboxyacryoyl)amino-5-chloro-N-(3,4-methylenedioxybenzyl)benzamide], half-maximal inhibition (IC50) required 79.8 nM. `COc1ccc(CNC(=O)c2cc([N+](=O)[O-])ccc2NC(=O)[C@H]2CC[C@H](C(=O)O)CC2)cc1Cl` [Example 114, 2-[(trans-4-Carboxycyclohexanecarbonyl)amino]-N-(3-chloro-4-methoxybenzyl)-5-nitrobenzamide] had a half-inhibitory concentration (IC50) of 1.7 nM. As to `COc1ccc(CNC(=O)c2cc(C#N)ccc2NC(=O)[C@H]2CC[C@H](O)CC2)cc1Cl` [Example 109, N-(3-Chloro-4-methoxybenzyl)-5-cyano-2-[(trans-4-hydroxycyclohexanecarbonyl)amino]benzamide], the IC50 was 4.4 nM. With `COc1cc(CNC(=O)c2cc(Cl)ccc2NC(=O)[C@H]2CC[C@H](C(=O)O)CC2)ccc1Cl` [Example 121, 2-[(trans-4-Carboxycyclohexanecarbonyl)amino]-5-chloro-N-(4-chloro-3-methoxybenzyl)benzamide], the IC50 was found to be 7.7 nM. Turning to `O=C(Nc1ccc(Br)cc1C(=O)NCc1ccc2c(c1)OCO2)c1ccncc1` [Example 85, 5-Bromo-2-(isonicotinoylamino)-N-(3,4-methylenedioxybenzyl)benzamide], the concentration for half-maximal inhibition (IC50) amounted to 21.7 nM.

In turn, `O=C(NCc1ccc2c(c1)OCO2)c1cc(Cl)ccc1NC(=O)N1CCC(C(=O)O)CC1` [Example 38, 1-[[4-Chloro-2-[(3,4-methylenedioxybenzyl)carbamoyl]phenyl]carbamoyl]piperidine-4-carboxylic acid] came in with an IC50 of 6.7 nM. For `COc1ccc(CNC(=O)c2cc(Br)ccc2NC(=O)N2CCC(C(=O)O)CC2)cc1Cl` [Example 111, 1-[[4-Bromo-2-[(3-chloro-4-methoxybenzyl)carbamoyl]phenyl]carbamoyl]piperidine-4-carboxylic acid] the value was 2 nM; for `COc1ccc(CNC(=O)c2cc(Br)ccc2NC(=O)c2ccncc2)cc1Cl` [Example 81], 14.5 nM.

As for `O=C(Nc1ccc(Cl)cc1C(=O)NCc1ccc2c(c1)OCO2)c1ccncc1` [Example 9, 5-Chloro-N-(3,4-methylenedioxybenzyl)-2-(isonicotinoylamino)benzamide], the IC50 worked out at 28.8 nM. For the compound `COc1ccc(CNC(=O)c2cc(C#N)c(OC)cc2NC(=O)c2ccncc2)cc1Cl` [Example 83, N-(3-Chloro-4-methoxybenzyl)-5-cyano-2-(isonicotinoylamino)-4-methoxybenzamide], the IC50 worked out at 12.6 nM.

`COc1ccc(CNC(=O)c2cc(C#N)ccc2NC(=O)N2CCC(O)CC2)cc1Cl` [Example 74, 1-[[2-[(3-Chloro-4-methoxybenzyl)carbamoyl]-4-cyanophenyl]carbamoyl]-4-hydroxypiperidine] registered an IC50 of 2.4 nM.

Take `COc1ccc(CNC(=O)c2cc(Cl)ccc2NC(=O)[C@H]2CC[C@H](C(=O)O)CC2)cc1C#N` [Example 120, 2-[(trans-4-Carboxycyclohexanecarbonyl)amino]-5-chloro-N-(3-cyano-4-methoxybenzyl)benzamide]: it took 21.5 nM to reach half-maximal inhibition (IC50).

On to `O=C(NCc1ccc2c(c1)OCO2)c1cc(Br)ccc1NC(=O)N1CCC(C(=O)O)CC1` [Example 122], for which the IC50 came to 5 nM.
